Results reported in the NIST ThermoML archive (doi:10.1021/acs.jced.6b00221).

Tests used:
[1] = Boiling temperature at pressure P; conditions: Liquid, Ebulliometric method (Recirculating still)
[2] = Liquid, Ebulliometric method (Recirculating still)

CCOC(C)=O [ethyl acetate]
Conditions | Boiling temperature at pressure P [°C] | vapor or sublimation pressure [kPa]
[1], 54.99 kPa | 59.67 | –
[1], 59.98 kPa | 62.01 | –
[1], 70 kPa | 66.27 | –
[1], 75 kPa | 67.77 | –
[1], 80 kPa | 70.03 | –
[1], 84.99 kPa | 71.78 | –
[1], 89.91 kPa | 73.43 | –
[1], 95.01 kPa | 75.1 | –
[1], 101.33 kPa | 77.01 | –
[1], 104.99 kPa | 78.11 | –
[1], 109.98 kPa | 79.52 | –
[1], 119.9 kPa | 82.21 | –
[1], 124.98 kPa | 83.47 | –
[1], 129.93 kPa | 84.71 | –
[1], 134.95 kPa | 85.93 | –
[1], 139.96 kPa | 87.09 | –
[1], 149.95 kPa | 89.33 | –
[1], 154.97 kPa | 90.41 | –
[1], 159.96 kPa | 91.5 | –
[1], 164.99 kPa | 92.49 | –
[1], 174.99 kPa | 94.46 | –
[1], 180 kPa | 95.43 | –
[1], 185 kPa | 96.4 | –
[2], 330.41 K | – | 50
[2], 349.7 K | – | 100
[2], 362.48 K | – | 150

CC(=O)OCC(C)C [2-methylpropyl ethanoate]
Conditions | Boiling temperature at pressure P [°C] | vapor or sublimation pressure [kPa]
[1], 39.99 kPa | 88 | –
[1], 49.98 kPa | 94.26 | –
[1], 59.99 kPa | 99.74 | –
[1], 70 kPa | 104.24 | –
[1], 80 kPa | 108.43 | –
[1], 90 kPa | 112.39 | –
[1], 100 kPa | 116.22 | –
[1], 110 kPa | 119.20 | –
[1], 120 kPa | 122.11 | –
[1], 130 kPa | 125.01 | –
[1], 140 kPa | 127.69 | –
[1], 150 kPa | 130.49 | –
[2], 367.51 K | – | 50
[2], 388.93 K | – | 100
[2], 389.37 K | – | 100
[2], 403.22 K | – | 150
[2], 403.64 K | – | 150

CC(=O)OCCC(C)C [3-methylbutyl ethanoate]
Conditions | Boiling temperature at pressure P [°C] | vapor or sublimation pressure [kPa]
[1], 20 kPa | 92.14 | –
[1], 29.98 kPa | 102.91 | –
[1], 40.01 kPa | 111.16 | –
[1], 49.99 kPa | 117.92 | –
[1], 60 kPa | 123.61 | –
[1], 70 kPa | 128.57 | –
[1], 80.01 kPa | 133.03 | –
[1], 90 kPa | 137.09 | –
[1], 100.01 kPa | 140.8 | –
[1], 110 kPa | 144.00 | –
[1], 119.99 kPa | 147.28 | –
[1], 130 kPa | 150.31 | –
[1], 139.99 kPa | 153.18 | –
[1], 149.99 kPa | 155.90 | –
[1], 160.01 kPa | 158.46 | –
[2], 413.99 K | – | 100
